Test results from ChEMBL document CHEMBL3132857, “Design, synthesis and biological evaluation of novel indano- and thiaindano-pyrazoles with potential interest for Alzheimer's disease” (Medchemcomm, 2013).

Legend:
[1] = target: T1, Acetylcholinesterase (Homo sapiens, UniProt P22303); experiment: Inhibition of human erythrocyte AChE using acetylthiocholine chloride by spectrophotometry
[2] = target: T2, Acetylcholinesterase (Electrophorus electricus, UniProt O42275); experiment: Inhibition of electric eel AChE using acetylthiocholine chloride by spectrophotometry
[3] = target: Acetylcholinesterase (Electrophorus electricus) (UniProt O42275); experiment: Inhibition of electric eel AChE at 10 uM using acetylthiocholine chloride by spectrophotometry
[4] = target: Butyrylcholinesterase (Equus caballus, UniProt Q9N1N9); experiment: Inhibition of horse serum BuChE using butyrylthiocholine chloride by spectrophotometry
[5] = target: T2, Acetylcholinesterase; experiment: Reversible mixed type inhibition of electric eel AChE using acetylthiocholine chloride by Lineweaver-Burk plot method and Ellman's method based spectrophotometry
[6] = target: T1, Acetylcholinesterase; experiment: Inhibition of human erythrocyte AChE at 10 uM using acetylthiocholine chloride by spectrophotometry
[7] = target: Butyrylcholinesterase (Equus caballus) (UniProt Q9N1N9); experiment: Inhibition of horse serum BuChE at 10 uM using butyrylthiocholine chloride by spectrophotometry
[8] = target: T2, Acetylcholinesterase; experiment: Non-competitive inhibition of electric eel AChE using acetylthiocholine chloride by Lineweaver-Burk plot method and Ellman's method based spectrophotometry

| Compound | IC50 [1] [µM] | IC50 [2] [µM] | inhibition [6] [%] | other results |
| --- | --- | --- | --- | --- |
| COc1cc2c(cc1OC)C(NC(=O)CN1CCN(Cc3ccccc3)CC1)c1cnn(C)c1-2 (stereo not drawn) | 1.84 | 1.28 |  |  |
| COc1cc2c(cc1OC)C(NC(=O)CN1CCN(Cc3ccccc3)CC1)c1cnn(-c3ccccc3)c1-2 (stereo not drawn) | 2.99 | 1.36 |  |  |
| O=C(CN1CCN(Cc2ccccc2)CC1)NC1c2cn[nH]c2-c2sccc21 (stereo not drawn) | 9.18 |  |  | inhibition [3]: 49% |
| Cn1ncc2c1-c1c(Br)sc(Br)c1C2NC(=O)CN1CCN(Cc2ccccc2)CC1 (stereo not drawn) | 0.33 | 0.1 |  | IC50 [4]: 7.76 µM; Ki [5]: 0.235 µM |
| O=C(CN1CCN(Cc2ccccc2)CC1)NC1c2ccsc2-c2c1cnn2-c1ccccc1 (stereo not drawn) |  |  | 36 | inhibition [3]: 31% |
| O=C(CN1CCN(Cc2ccccc2F)CC1)NC1c2cn[nH]c2-c2sccc21 (stereo not drawn) |  | 4.59 | 42 |  |
| O=C(CN1CCN(Cc2ccccc2)CC1)NC1c2cnn(-c3ccccc3)c2-c2c(Br)sc(Br)c21 (stereo not drawn) | 0.87 | 0.29 |  | inhibition [7]: 37% |
| O=C(CN1CCN(Cc2ccccc2)CC1)NC1c2cn[nH]c2-c2c(Br)sc(Br)c21 (stereo not drawn) | 1.13 | 8.82 |  |  |
| O=C(CN1CCN(Cc2ccccc2F)CC1)NC1c2ccsc2-c2c1cnn2-c1ccccc1 (stereo not drawn) |  | 4.06 | 42 |  |
| Cn1ncc2c1-c1c(Br)sc(Br)c1C2NC(=O)CN1CCN(Cc2ccccc2F)CC1 (stereo not drawn) | 0.88 | 0.24 |  | Ki [8]: 0.429 µM; inhibition [7]: 30% |
| COc1cc2c(cc1OC)C(NC(=O)CN1CCN(Cc3ccccc3F)CC1)c1cnn(C)c1-2 (stereo not drawn) | 2.44 | 0.72 |  | inhibition [7]: 1% |
| COc1cc2c(cc1OC)C(NC(=O)CN1CCN(Cc3ccccc3F)CC1)c1cn[nH]c1-2 (stereo not drawn) |  | 3.98 | 50 |  |
| COc1cc2c(cc1OC)C(NC(=O)CN1CCN(Cc3ccccc3)CC1)c1cn[nH]c1-2 (stereo not drawn) |  | 2.94 | 49 |  |
| O=C(CN1CCN(Cc2ccccc2F)CC1)NC1c2cn[nH]c2-c2c(Br)sc(Br)c21 (stereo not drawn) |  | 4.53 | 42 |  |
| O=C(CN1CCN(Cc2ccccc2F)CC1)NC1c2cnn(-c3ccccc3)c2-c2c(Br)sc(Br)c21 (stereo not drawn) |  |  | 15 | inhibition [3]: 27% |
| Cn1ncc2c1-c1sccc1C2NC(=O)CN1CCN(Cc2ccccc2F)CC1 (stereo not drawn) | 1.32 | 1.31 |  |  |
| COc1cc2c(cc1OC)C(NC(=O)CN1CCN(Cc3ccccc3F)CC1)c1cnn(-c3ccccc3)c1-2 (stereo not drawn) | 2.43 | 0.21 |  | inhibition [7]: 8% |
| Cn1ncc2c1-c1sccc1C2NC(=O)CN1CCN(Cc2ccccc2)CC1 (stereo not drawn) | 0.93 | 1.91 |  |  |
